The assay concerns the target T1, human CRTH2 (Homo sapiens, UniProt Q9Y5Y4).
T1 construct: expressed in transfected cells; host or cells: CHO-K1
T1 sequence (Q9Y5Y4 1-395): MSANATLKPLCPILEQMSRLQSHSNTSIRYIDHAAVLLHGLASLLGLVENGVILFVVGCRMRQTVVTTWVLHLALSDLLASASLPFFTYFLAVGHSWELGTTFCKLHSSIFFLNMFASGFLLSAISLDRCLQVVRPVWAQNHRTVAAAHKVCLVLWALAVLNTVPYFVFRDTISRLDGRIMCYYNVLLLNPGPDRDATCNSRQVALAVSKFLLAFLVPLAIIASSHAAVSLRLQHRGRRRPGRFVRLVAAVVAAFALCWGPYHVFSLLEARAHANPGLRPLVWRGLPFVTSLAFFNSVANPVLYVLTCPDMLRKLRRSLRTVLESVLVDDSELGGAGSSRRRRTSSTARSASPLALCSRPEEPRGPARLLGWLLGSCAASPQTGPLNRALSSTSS
As to the kind of experiment: Human CRTH2 Receptor Binding Assay (whole cell, [3H]ramatroban competition). Particulars: CHO-K1 cells expressing human CRTH2 and G-alpha16; 20 nM [3H]ramatroban; 1 hour, room temperature. An excerpt: A whole cell receptor binding assay using [^3H]ramatroban as the competing radioactive ligand was employed to evaluate the compound binding activity to human CRTH2. The radioactive ligand [^3H]ramatroban was synthesized according to Sugimoto et. al. (Eur. J. Pharmacol. 524, 30-37, 2005) to a specific activity of 42 Ci/mmol.
A cell line stably expressing human CRTH2 was established by transfecting CHO-K1 cells with two mammalian expression vectors that harbored human CRTH2 and G-alpha16 cDNAs, respectively, using FuGene® 6 transfection reagent (from Roche). Stable clones expressing CRTH2 were selected by staining each clone with BM16 (BD Pharmingen™ from BD Biosciences, a division of Becton, Dickinson and Company), which is a rat monoclonal antibody to human CRTH2. The cells were maintained as monolayer cultures in Ham's F-12 medium containing 10% fetal bovine serum, 100 units/mL penicillin, 100 μg/mL streptomycin, 2 mM glutamine, 0.5 mg/mL G418 (geneticin) for CRTH2, and 0.2 mg/mL hygromycin-B (for G-alpha 16). For whole cell receptor binding assay, the monolayer cells were rinsed once with PBS (phosphate buffered saline), dissociated using ethylenediaminetetraacetate (Versene™ EDTA from Lonza Inc.), and suspended in PBS containing 10 mM MgCl2 and 0.06% BSA (bovine serum albumin) at 1.5×10^6 cells/mL.
The binding reactions (0.2 mL) were performed in 96-well plates at room temperature in PBS containing 1.5×10^5 cells, 10 mM MgCl2, 0.06% BSA, 20 nM [^3H]ramatroban, and test compound at various concentrations. After 1 hour of binding reactions, the cells were harvested on GF™/B filter microplates (microtiter plates with embedded glass fiber from PerkinElmer, Inc.) and washed 5 times with PBS using a Filtermate™ Harvester (a cell harvester that harvests and washes cells from microplates from PerkinElmer, Inc.). The radioactivities bound to the cells were determined using a microplate scintillation counter (TopCount® NXT, from PerkinElmer, Inc.) after adding 50 μL of Microscint™ 20 scintillation fluid (from PerkinElmer, Inc.) to each well of the filter plates. The radioactivity from non-specific binding was determined by replacing compound with 10 μM of 15(R)-15-methyl PGD2 (from Cayman Chemical Company) in the reaction mixtures. The radioactivity bound to the cells in the absence of compound (total binding) was determined by replacing compound with 0.25% of DMSO (dimethyl sulfoxide) in the reaction mixture. Specific binding data were obtained by subtracting the radioactivity of non-specific binding from each binding data.
The IC50 value is defined as the concentration of the tested compound that is required for 50% inhibition of total specific binding. In order to calculate the IC50 value, the percent inhibition data were determined for 7 concentrations for each compound. The percent inhibition for a compound at each concentration was calculated according to the following formula, [1−(specific binding in the presence of compound)/(total specific binding)]×100. The IC50 value was then obtained by fitting the percent inhibition data to a sigmoidal dose-response (4 parameter logistic) model in the XLfit® software Excel add-in program [from ID Business Solutions Ltd., model 205, where F(x)=(A+(B−A)/(1+((C/x)^D)))].

What is called IC50 is the concentration that inhibits the measured activity by half. Lower therefore signals greater potency in that assay.

`Cc1c(CC(=O)O)cc2ccc(F)cc2c1Oc1ccc(S(=O)(=O)C(C)C)cc1` [Example 2-4, {6-fluoro-3-methyl-4-[4-(propane-2-sulfonyl)-phenoxy]-naphthalen-2-yl}-acetic acid] yielded an IC50 of 2.8 nM.
In the case of `CCS(=O)(=O)c1ccc(Oc2cc(CC(=O)O)cc3ccc(F)cc23)c(C)c1` [Example 1-8, [4-(4-ethanesulfonyl-2-methyl-phenoxy)-6-fluoro-naphthalen-2-yl]-acetic acid], the IC50 turned out to be 3.3 nM.
`CCS(=O)(=O)c1ccc(Oc2cc(CC(=O)O)c(C)c3ccc(F)cc23)nc1` [Example 6-1, [4-(5-ethanesulfonyl-pyridin-2-yloxy)-6-fluoro-1-methyl-naphthalen-2-yl]-acetic acid] had an IC50 of 32.1 nM.
With `Cc1c(CC(=O)O)cc2ccc(F)cc2c1Oc1ccc(S(C)(=O)=O)cn1` [Example 2-32, [6-fluoro-4-(5-methanesulfonyl-pyridin-2-yloxy)-3-methyl-naphthalen-2-yl]-acetic acid], the IC50 turned out to be 0.9 nM.
Turning to `CCS(=O)(=O)c1ccc(Oc2cc(CC(=O)O)cc3ccc(S(C)(=O)=O)cc23)cc1` [Example 16-1, [4-(4-Ethanesulfonyl-phenoxy)-6-methanesulfonyl-naphthalen-2-yl]-acetic acid], the IC50 is 91.5 nM.
`Cc1c(CC(=O)O)cc2ccc(Cl)cc2c1Oc1ccc(S(C)(=O)=O)cc1` [Example 2-7, [6-Chloro-4-(4-methanesulfonyl-phenoxy)-3-methyl-naphthalen-2-yl]-acetic acid] showed an IC50 of 2.2 nM.
The figure for `CCS(=O)(=O)c1ccc(Oc2cc(CC(=O)O)cc3ccc(Br)cc23)cc1` [Example 15-1, [6-Bromo-4-(4-ethanesulfonyl-phenoxy)-naphthalen-2-yl]-acetic acid] is 5.4 nM; for `Cc1c(CC(=O)O)cc2ccc(F)cc2c1Oc1ccc(S(=O)(=O)N2CC3(COC3)C2)cc1` [Example 2-43, {6-fluoro-3-methyl-4-[4-(2-oxa-6-aza-spiro[3.3]heptane-6-sulfonyl)-phenoxy]-naphthalen-2-yl}-acetic acid] it is 1.8 nM.
The figure for `CCCCS(=O)(=O)c1ccc(Oc2c(C)c(CC(=O)O)cc3ccc(F)cc23)cc1` [Example 2-23, {4-[4-(butane-1-sulfonyl)-phenoxy]-6-fluoro-3-methyl-naphthalen-2-yl}-acetic acid] is 2.1 nM; for `Cc1c(CC(=O)O)cc2ccc(F)cc2c1Oc1ccc(C#N)cc1` [Example 2-44, [4-(4-cyano-phenoxy)-6-fluoro-3-methyl-naphthalen-2-yl]-acetic acid] it is 10 nM.
With `CCS(=O)(=O)c1ccc(Oc2cc(CC(=O)O)cc3cc(F)ccc23)cc1` [Example 1-20, [4-(4-Ethanesulfonyl-phenoxy)-7-fluoro-naphthalen-2-yl]-acetic acid], the IC50 was 18.1 nM.
The compound `Cc1c(CC(=O)O)cc2ccc(F)cc2c1Oc1ccc(S(=O)(=O)C2CC2)cc1` [Example 2-5, [4-(4-cyclopropanesulfonyl-phenoxy)-6-fluoro-3-methyl-naphthalen-2-yl]-acetic acid] had an IC50 of 3.5 nM.
For `CCS(=O)(=O)c1ccc(Oc2cc(CC(=O)O)cc3ccc(F)cc23)nc1` [Example 1-11, [4-(5-ethanesulfonyl-pyridin-2-yloxy)-6-fluoro-naphthalen-2-yl]-acetic acid], the IC50 is 5.6 nM.
Turning to `Cc1c(CC(=O)O)cc2ccc(F)cc2c1Oc1ccc(S(=O)(=O)N2CCC(F)(F)CC2)cc1` [Example 2-42, {4-[4-(4,4-difluoro-piperidine-1-sulfonyl)-phenoxy]-6-fluoro-3-methyl-naphthalen-2-yl}-acetic acid], the IC50 is 2.9 nM.
The figure for `CCS(=O)(=O)c1ccc(Oc2cc(CC(=O)O)cc3ccc(C)cc23)nc1` [Example 13-1, [4-(5-Ethanesulfonyl-pyridin-2-yloxy)-6-methyl-naphthalen-2-yl]-acetic acid] is 73.7 nM; for `Cc1c(CC(=O)O)cc2ccc(F)cc2c1Nc1ccc(S(C)(=O)=O)cc1` [Example 8-2, [6-fluoro-4-(4-methanesulfonyl-phenylamino)-3-methyl-naphthalen-2-yl]-acetic acid] it is 2.6 nM; for `CS(=O)(=O)c1ccc(Sc2cc(CC(=O)O)cc3ccc(F)cc23)cc1` [Example 9-1, [6-fluoro-4-(4-methanesulfonyl-phenylsulfanyl)-naphthalen-2-yl]-acetic acid] it is 7.5 nM.
In turn, `CS(=O)(=O)c1ccc(Oc2cc(CC(=O)O)cc3ccc(Cl)cc23)cc1` [Example 1-3, [6-chloro-4-(4-methanesulfonyl-phenoxy)-naphthalen-2-yl]-acetic acid] yielded an IC50 of 8.5 nM.
`CS(=O)(=O)c1ccc(Oc2cc(CC(=O)O)cc3ccccc23)cc1` [Example 3-1, [4-(4-methanesulfonyl-phenoxy)-naphthalen-2-yl]-acetic acid]: the half-inhibitory concentration (IC50) stood at 12.9 nM.
Regarding `Cc1c(CC(=O)O)cc2ccc(F)cc2c1Oc1ccc(S(C)(=O)=O)cc1` [Example 2-2, [6-fluoro-4-(4-methanesulfonyl-phenoxy)-3-methyl-naphthalen-2-yl]-acetic acid], the IC50 was 2.3 nM.
In turn, `Cc1cc(Oc2c(C)c(CC(=O)O)cc3ccc(Cl)cc23)ccc1S(C)(=O)=O` [Example 2-8, [6-chloro-4-(4-methanesulfonyl-3-methyl-phenoxy)-3-methyl-naphthalen-2-yl]-acetic acid] showed an IC50 of 4.5 nM.
`CCCS(=O)(=O)c1ccc(Oc2c(C)c(CC(=O)O)cc3ccc(F)cc23)cc1` [Example 2-22, {6-fluoro-3-methyl-4-[4-(propane-1-sulfonyl)-phenoxy]-naphthalen-2-yl}-acetic acid]: the IC50 came to 2.4 nM.
Compound `CCc1c(CC(=O)O)cc2ccc(F)cc2c1Oc1ccc(S(=O)(=O)CC)cn1` [Example 19-1] displayed an IC50 of 17.5 nM.
`Cc1ccc(S(=O)(=O)c2ccc(Oc3c(C)c(CC(=O)O)cc4ccc(F)cc34)cc2)cc1` [Example 2-29, {6-fluoro-3-methyl-4-[4-(toluene-4-sulfonyl)-phenoxy]-naphthalen-2-yl}-acetic acid] gave an IC50 of 2.8 nM.
In the case of `Cc1c(CC(=O)O)cc2ccc(F)cc2c1Oc1ccc(S(C)(=O)=O)cc1Cl` [Example 2-20, [4-(2-chloro-4-methanesulfonyl-phenoxy)-6-fluoro-3-methyl-naphthalen-2-yl]-acetic acid], the IC50 stood at 2.5 nM.
The figure for `Cc1c(CC(=O)O)cc2ccc(F)cc2c1Oc1ccc(S(=O)(=O)c2ccc(F)cc2)cc1` [Example 2-27, {6-fluoro-4-[4-(4-fluoro-benzenesulfonyl)-phenoxy]-3-methyl-naphthalen-2-yl}-acetic acid] is 2.9 nM.
In turn, `CCS(=O)(=O)c1ccc(Oc2cc(CC(=O)O)cc3ccc(OC(F)(F)F)cc23)cc1` [Example 1-19, [4-(4-Ethanesulfonyl-phenoxy)-6-trifluoromethoxy-naphthalen-2-yl]-acetic acid] returned an IC50 of 2.6 nM.
`CS(=O)(=O)c1ccc(Nc2cc(CC(=O)O)cc3ccc(F)cc23)cc1` [Example 8-1, [6-fluoro-4-(4-methanesulfonyl-phenylamino)-naphthalen-2-yl]-acetic acid] yielded an IC50 of 3.3 nM.
Take `Cc1cc(Oc2cc(CC(=O)O)cc3ccc(F)cc23)ccc1S(C)(=O)=O` [Example 1-7, [6-fluoro-4-(4-methanesulfonyl-3-methyl-phenoxy)-naphthalen-2-yl]-acetic acid]: the IC50 worked out at 3.5 nM.

Values taken from US8642629B2, “Naphthylacetic acids” (Hoffmann-La Roche Inc., priority 2008, dated 2014).
